Where two headings read alike, the source gives them in different places.
Test system: apomorphine-induced vomiting in dogs
Experiment: Apomorphine-induced vomiting test in dogs (antiemetic activity, subcutaneous)
Format: in vivo, beagle dogs
Settings: Canis lupus familiaris, sc
[1] = beagle dogs, apomorphine 0.31 mg/kg s.c. 1 hour after compound, read-out: ED50 (dose which protects 50% of the animals from emesis), Table IV
[2] = 1 h, read-out: ED50 (dose which protects 50% of the animals from emesis), Table III
[3] = 1 h, read-out: ED50 (dose which protects 50% of the animals from emesis), Table I

**Q.** Which ED50 [1] does the source give for `O=c1[nH]c2ccccc2n1CCCN1CCC(n2c(=S)[nH]c3ccccc32)CC1` here?
**A.** Its ED50 is 0.025 mg/kg.

**Q.** With `O=C1NCN(c2ccccc2)C12CCN(CCCn1cnc3ccccc31)CC2` as the compound, how does the ED50 (1 h, read-out: ED50 (dose which protects 50% of the animals from emesis), Table IV) read?
**A.** The ED50 was 0.25 mg/kg.

**Q.** For `O=c1[nH]c2ccccc2n1CCCN1CCC(O)(c2ccc(Cl)c(C(F)(F)F)c2)CC1` [L=H, R8=4-Cl, R9=3-CF3, 1-[3-{4-[4-chloro-3-(trifluoromethyl)phenyl]-4-hydroxy-1-piperidinyl}propyl]-1,3-dihydro-2H-benzimidazol-2-one], which ED50 [2] is on record?
**A.** Its ED50 is 0.015 mg/kg.

**Q.** For `O=C1NCN(c2ccccc2)C12CCN(CCCn1c(=O)[nH]c3ccccc31)CC2` [L=H, R1=H, R4=H, R5=H, 8-[3-(1,3-dihydro-2-oxo-2H-benzimidazol-1-yl)propyl]-1-phenyl-1,3,8-triazaspiro[4,5]decan-4-one], which ED50 [3] is on record?
**A.** The ED50 was 0.03 mg/kg.

**Q.** `O=c1[nH]c2ccccc2n1CCCN1CCC(n2c(=O)[nH]c3cc(Cl)ccc32)CC1` [5-chloro-1-{1-[3-(1,3-dihydro-2-oxo-2H-benzimidazol-1-yl)propyl]-4-piperidinyl}-1,3-dihydro-2H-benzimidazol-2-one] was tested. Which ED50 (1 h, read-out: ED50 (dose which protects 50% of the animals from emesis), Table II) did it give?
**A.** The ED50 was 0.01 mg/kg.

**Q.** With `O=C1NCN(c2ccccc2)C12CCN(CCCn1c(=O)[nH]c3cc(Cl)ccc31)CC2` [L=H, R1=5-Cl, R4=H, R5=H, 8-[3-(5-chloro-1,3-dihydro-2-oxo-2H-benzimidazol-1-yl)propyl]-1-phenyl-1,3,8-triazaspiro[4,5]decan-4-one] as the compound, how does the ED50 [3] read?
**A.** The ED50 was 0.05 mg/kg.

**Q.** For `O=c1[nH]c2ccccc2n1CCCN1CCC(O)(c2ccc(Cl)cc2)CC1` [L=H, R8=4-Cl, R9=H, 1-{3-[4-(4-chlorophenyl)-4-hydroxy-1-piperidinyl]-propyl}-1,3-dihydro-2H-benzimidazol-2-one], which ED50 [2] is on record?
**A.** The ED50 was 0.06 mg/kg.

**Q.** How did the ED50 [3] turn out when `O=C1NCN(c2ccc(F)cc2)C12CCN(CCCn1c(=O)[nH]c3cc(Cl)ccc31)CC2` [L=H, R1=5-Cl, R4=H, R5=4-F, 8-[3-(5-chloro-1,3-dihydro-2-oxo-2H-benzimidazol-1-yl)propyl]-1-(4-fluorophenyl)-1,3,8-triazaspiro[4,5]decan-4-one] was run?
**A.** Its ED50 is 0.015 mg/kg.

**Q.** `C=CCn1c(=O)n(CCCN2CCC3(CC2)C(=O)NCN3c2ccccc2)c2ccccc21` [L=CH2CHCH2, R1=H, R4=H, R5=H, 8-{3-[1,3-dihydro-2-oxo-3-(2-propenyl)-2H-benzimidazol-1-yl]propyl}-1-phenyl-1,3,8-triazaspiro[4,5]decan-4-one] was tested. Which ED50 [3] did it give?
**A.** Its ED50 is 0.25 mg/kg.

**Q.** With `C=CCn1c(=O)n(CCCN2CCC(O)(c3ccc(Cl)cc3)CC2)c2ccccc21` [L=CH2CHCH2, R8=4-Cl, R9=H, 1-{3-[4-(4-chlorophenyl) 4-hydroxy-1-piperidinyl]propyl}-1,3-dihydro-3-(2-propenyl)-2-H-benzimidazol-2-one] as the compound, how does the ED50 [2] read?
**A.** Its ED50 is 0.5 mg/kg.

**Q.** With `O=c1[nH]c2ccccc2n1CCCN1CC=C(n2c(=O)[nH]c3ccccc32)CC1` [L=H, R1=H, R2=H, R3=H, ring drawing 47, R7=H, 1-{3-[3,6-dihydro-4-(1,3-dihydro-2-oxo-2H-benzimidazol-1-yl)-1-(2H)-pyridinyl]propyl}-1,3-dihydro-2H-benzimidazol-2-one] as the compound, how does the ED50 (beagle dogs, apomorphine 0.31 mg/kg s.c. 1 hour after compound, read-out: ED50 (dose which protects 50% of the animals from emesis), Table II) read?
**A.** The ED50 was 0.04 mg/kg.

**Q.** `O=C1NCN(c2cccc(C(F)(F)F)c2)C12CCN(CCCn1c(=O)[nH]c3ccccc31)CC2` [L=H, R1=H, R4=H, R5=3-CF3, 8-[3-(2,3-dihydro-2-oxo-1H-benzimidazol-1-yl)propyl]-1-[3-(trifluoromethyl)phenyl]-1,3,8-triazaspiro[4,5]decan-4-one] was tested. Which ED50 [3] did it give?
**A.** Its ED50 is 0.025 mg/kg.

**Q.** With `CN1CN(c2ccccc2)C2(CCN(CCCn3c(=O)[nH]c4ccccc43)CC2)C1=O` [L=H, R1=H, R4=CH3, R5=H, 8-[3-(1,3-dihydro-2-oxo-2H-benzimidazol-1-yl)propyl]-3-methyl-1-phenyl-1,3,8-triazaspiro[4,5]decan-4-one] as the compound, how does the ED50 [3] read?
**A.** The ED50 was 0.015 mg/kg.

**Q.** For `Cn1c(=O)n(CCCN2CCC3(CC2)C(=O)NCN3c2ccccc2)c2ccccc21` [L=CH3, R1=H, R4=H, R5=H, 8-[3-(1,3-dihydro-3-methyl-2-oxo-2H-benzimidazol-1-yl)propyl]-1-phenyl-1,3,8-triazaspiro[4,5]-decan-4-one], which ED50 [3] is on record?
**A.** The ED50 was 0.08 mg/kg.

**Q.** With `O=C1NCN(c2ccc(F)cc2)C12CCN(CCCn1c(=O)[nH]c3ccccc31)CC2` [L=H, R1=H, R4=H, R5=4-F] as the compound, how does the ED50 [3] read?
**A.** The ED50 was 0.04 mg/kg.

**Q.** How did the ED50 [3] turn out when `Cc1ccc2c(c1)[nH]c(=O)n2CCCN1CCC2(CC1)C(=O)NCN2c1ccccc1` [L=H, R1=5-CH3, R4=H, R5=H, 8-[3-(1,3-dihydro-5-methyl-2-oxo-2H-benzimidazol-1-yl)propyl]-1-phenyl-1,3,8-triazaspiro[4,5]decan-4-one] was run?
**A.** The ED50 was 0.06 mg/kg.

**Q.** With `O=c1[nH]c2ccccc2n1CCCN1CCC(n2c(=S)[nH]c3cc(Cl)ccc32)CC1` as the compound, how does the ED50 [1] read?
**A.** The ED50 was 0.004 mg/kg.

**Q.** With `O=c1[nH]c2cc(Cl)ccc2n1C1CCN(CCCn2c(=S)[nH]c3ccccc32)CC1` as the compound, how does the ED50 [1] read?
**A.** The ED50 was 0.004 mg/kg.
